# Reference: patent US20230183239A1, “ECTONUCLEOTIDE PYROPHOSPHATASE-PHOSPHODIESTERASE 1 (ENPP-1) INHIBITORS AND USES THEREOF” (AbbVie Inc., priority 2017, published 2023)
# Target: T1, ENPP1 (Homo sapiens, UniProt P22413)
# T1 sequence (P22413 1-925): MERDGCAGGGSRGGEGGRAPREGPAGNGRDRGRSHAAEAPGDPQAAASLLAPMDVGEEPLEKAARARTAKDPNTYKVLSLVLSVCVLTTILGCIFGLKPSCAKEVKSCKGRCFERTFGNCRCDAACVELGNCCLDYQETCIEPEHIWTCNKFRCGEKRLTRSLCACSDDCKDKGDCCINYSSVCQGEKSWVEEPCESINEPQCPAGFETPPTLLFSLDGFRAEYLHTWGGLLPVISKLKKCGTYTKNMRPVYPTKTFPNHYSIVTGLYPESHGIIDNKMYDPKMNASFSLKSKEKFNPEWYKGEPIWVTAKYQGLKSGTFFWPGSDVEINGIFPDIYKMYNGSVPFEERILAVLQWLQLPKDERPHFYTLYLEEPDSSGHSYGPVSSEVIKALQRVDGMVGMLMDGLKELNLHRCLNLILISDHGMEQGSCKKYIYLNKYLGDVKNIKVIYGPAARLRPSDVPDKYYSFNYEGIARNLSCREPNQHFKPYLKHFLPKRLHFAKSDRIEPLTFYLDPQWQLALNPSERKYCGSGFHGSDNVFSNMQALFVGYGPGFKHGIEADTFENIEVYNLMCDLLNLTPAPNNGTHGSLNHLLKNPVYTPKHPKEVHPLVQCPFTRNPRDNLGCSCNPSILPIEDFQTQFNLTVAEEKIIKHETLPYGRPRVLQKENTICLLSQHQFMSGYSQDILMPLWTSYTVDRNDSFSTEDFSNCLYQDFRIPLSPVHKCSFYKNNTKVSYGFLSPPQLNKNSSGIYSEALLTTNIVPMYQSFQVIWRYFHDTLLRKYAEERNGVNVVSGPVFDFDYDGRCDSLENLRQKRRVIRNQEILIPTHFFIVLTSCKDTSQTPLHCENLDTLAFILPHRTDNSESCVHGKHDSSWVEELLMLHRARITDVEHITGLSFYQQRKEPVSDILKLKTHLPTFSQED
# Test: Indirect quantitation of 2',3'-cGAMP hydrolysis (AMP-Glo Assay kit)
# Type: biochemical
# Details: cGAMP substrate; Ki from IC50 by Cheng-Prusoff; read-out: ENPP1 Inhibition -cGAMP: Ki
row,SMILES,Ki
1,"COc1cc2nc(-c3ccccn3)nc(N3CCC(CCNS(N)(=O)=O)CC3)c2cc1OC [Example 4, N-(2-(1-(6,7-dimethoxy-2-(pyridin-2-yl)quinazolin-4-yl)piperidin-4-yl)ethyl)sulfamide]",> 1 µM
2,"COc1cc2nc(-c3ccccc3)nc(N3CCC(CCNS(N)(=O)=O)CC3)c2cc1OC [Example 8, N-(2-(1-(6,7-dimethoxy-2-phenylquinazolin-4-yl)piperidin-4-yl)ethyl)sulfamide]",> 1 µM
3,"Cc1ncnc(N2CCC(CCNS(N)(=O)=O)CC2)c1C [Example 15, N-(2-(1-(5,6-dimethylpyrimidin-4-yl)piperidin-4-yl)ethyl)sulfamide]",> 1 µM
4,"Cc1cc(N2CCC(CCNS(N)(=O)=O)CC2)ncn1 [Example 16, N-(2-(1-(6-methylpyrimidin-4-yl)piperidin-4-yl)ethyl)sulfamide]",> 1 µM
5,"NS(=O)(=O)NCCC1CCN(c2ncnc3c[nH]nc23)CC1 [Example 27, N-(2-(1-(1H-pyrazolo[4,3-d]pyrimidin-7-yl)piperidin-4-yl)ethyl)sulfamide]",> 1 µM
6,"COc1ccc(-c2cc(N3CCC(NS(N)(=O)=O)CC3)ncn2)cc1OC [Example 36, N-(1-(6-(3,4-dimethoxyphenyl)pyrimidin-4-yl)piperidin-4-yl)sulfamide]",> 1 µM
7,"COc1ccc(-c2cc(N3CCC(CNS(N)(=O)=O)CC3)ncn2)cc1OC [Example 37, N-((1-(6-(3,4-dimethoxyphenyl)pyrimidin-4-yl)piperidin-4-yl)methyl)sulfamide]",> 1 µM
8,"COc1ccc(-c2cc(N3CCC(CCNS(N)(=O)=O)CC3)ncn2)cc1OC [Example 38, N-(2-(1-(6-(3,4-dimethoxyphenyl)pyrimidin-4-yl)piperidin-4-yl)ethyl)sulfamide]",> 1 µM
9,"Cc1ncnc(N2CCC(NS(N)(=O)=O)CC2)c1C [Example 39, N-(1-(5,6-dimethylpyrimidin-4-yl)piperidin-4-yl)sulfamide]",> 1 µM
10,"COc1cc2ncnc(N3CCc4c(cccc4S(=O)(=O)N4CCN(C)CC4)C3)c2cc1OC [Example 41, 6,7-dimethoxy-4-(5-((4-methylpiperazin-1-yl)sulfonyl)-3,4-dihydroisoquinolin-2(1H)-yl)quinazoline]",> 1 µM
11,"COc1cc(NC(C)=O)c(C(=O)N2CCC(CCNS(N)(=O)=O)CC2)cc1OC [Example 44, N-(4,5-dimethoxy-2-(4-(2-(sulfamoylamino)ethyl)piperidine-1-carbonyl)phenyl)acetamide]",> 1 µM
12,"COc1ccc(C(=O)N2CCC(CCNS(N)(=O)=O)CC2)cc1OC [Example 47, N (2-(1-(3,4-dimethoxybenzoyl)piperidin-4-yl)ethyl)sulfamide]",> 1 µM
13,"NS(=O)(=O)NCCC1CCN(C(=O)c2ccccc2)CC1 [Example 50, N-(2-(1-(benzoyl)piperidin-4-yl)ethyl)sulfamide]",> 1 µM
14,"COc1cc2ncc(C#N)c(Oc3ccc(S(N)(=O)=O)cc3)c2cc1F [Example 76, 4-((3-cyano-6-fluoro-7-methoxyquinolin-4-yl)oxy)benzenesulfonamide]",< 0.1 µM
15,"COc1ccc2c(Oc3ccc(N(C)S(N)(=O)=O)cc3)ccnc2c1 [Example 77, N-(4-((7-methoxyquinolin-4-yl)oxy)phenyl)-N-methylsulfamide]",< 0.1 µM
16,"COc1ccc2c(Oc3ccc(NS(N)(=O)=O)c(OC)c3)ccnc2c1 [Example 78, N-(2-methoxy-4-((7-methoxyquinolin-4-yl)oxy)phenyl)sulfamide]",< 0.1 µM
17,"COc1ccc2c(Oc3cc(F)c(NS(N)(=O)=O)cc3F)ccnc2c1 [Example 79, N-(2,5-difluoro-4-((7-methoxyquinolin-4-yl)oxy)phenyl)sulfamide]",< 0.1 µM
18,"COc1cc2ncnc(-c3ccc(NS(N)(=O)=O)cc3)c2cc1OC [Example 113, N-(4-(6,7-dimethoxyquinazolin-4-yl)phenyl)sulfamide]",0.1 to 1 µM
19,"COc1cc2ncnc(N3CCC(CCN(C)C)CC3)c2cc1OC [Example 115, 2-(1-(6,7-dimethoxyquinazolin-4-yl)piperidin-4-yl)-N,N-dimethylethan-1-amine]",0.1 to 1 µM
20,"COc1cc2ncnc(N3CCC(CCNS(=O)(=O)c4ccccc4)CC3)c2cc1OC [Example 116, N-(2-(1-(6,7-dimethoxyquinazolin-4-yl)piperidin-4-yl)ethyl)benzenesulfonamide]",> 1 µM

row,SMILES,Ki
1,"COc1cc2ncnc(N3CCC(CCNC(N)=O)CC3)c2cc1OC [Example 117, 1-(2-(1-(6,7-dimethoxyquinazolin-4-yl)piperidin-4-yl)ethyl)urea]",0.1 to 1 µM
2,"COc1cc2nc(N(C)C)nc(N3CCC(CCNC=O)CC3)c2cc1OC [Example 118, N-(2-(1-(2-(dimethylamino)-6,7-dimethoxyquinazolin-4-yl)piperidin-4-yl)ethyl)formamide]",> 1 µM
3,"COc1cc2ncnc(N3CCN(C(=O)CN)CC3)c2cc1OC [Example 119, 2-amino-1-(4-(6,7-dimethoxyquinazolin-4-yl)piperazin-1-yl)ethan-1-one]",> 1 µM
4,"CNc1cc(OC)c(OC)cc1C(=O)N1CCC(CCNS(N)(=O)=O)CC1 [Example 123, N-(2-(1-(4,5-dimethoxy-2-(methylamino)benzoyl)piperidin-4-yl)ethyl)sulfamide]",> 1 µM
5,"COc1cnc(C(=O)N2CCC(CCNS(N)(=O)=O)CC2)cc1OC [Example 124, N-(2-(1-(4,5-dimethoxypicolinoyl)piperidin-4-yl)ethyl)sulfamide]",> 1 µM
6,"CNC(=O)c1cc(Oc2ccc(NS(N)(=O)=O)cc2)ccn1 [Example 127, N-methyl-4-(4-(sulfamoylamino)phenoxy)picolinamide]",> 1 µM
7,"Cn1cnc2ncnc(-c3ccc(CNS(N)(=O)=O)cc3)c21 [Example 128, N-(4-(7-methyl-7H-purin-6-yl)benzyl)sulfamide]",0.1 to 1 µM
8,"COc1cc(C#N)c(C(=O)N2CCC(CCNS(N)(=O)=O)CC2)cc1OC [Example 129, N-(2-(1-(2-cyano-4,5-dimethoxybenzoyl)piperidin-4-yl)ethyl)sulfamide]",> 1 µM
9,"CNC(=O)c1cc(N2CCC(CCNS(N)(=O)=O)CC2)ncn1 [Example 130, N-methyl-6-(4-(2-(sulfamoylamino)ethyl)piperidin-1-yl)pyrimidine-4-carboxamide]",> 1 µM
10,"COc1cc2ncnc(-c3ccc4c(c3)CCC(NS(N)(=O)=O)C4)c2cc1OC (stereo not drawn) [Example 131, N-(6-(6,7-dimethoxyquinazolin-4-yl)-1,2,3,4-tetrahydronaphthalen-2-yl)sulfamide]",> 1 µM
11,"COc1cc2ncnc(N3CCC(CCNS(=O)(=O)N4CCOCC4)CC3)c2cc1OC [Example 132, N-(2-(1-(6,7-dimethoxyquinazolin-4-yl)piperidin-4-yl)ethyl)morpholine-4-sulfonamide]",0.1 to 1 µM
12,"COc1ccc(NC(=O)C2CCC(CNS(N)(=O)=O)CC2)cc1OC (stereo not drawn) [Example 133, N-(3,4-dimethoxyphenyl)-4-((sulfamoylamino)methyl)cyclohe xane-1-carboxamide]",> 1 µM
13,"Cn1ncc2c(N3CCC(CCNS(N)(=O)=O)CC3)ccnc21 [Example 135, N-(2-(1-(1-methyl-1H-pyrazolo[3,4-b]pyridin-4-yl)piperidin-4-yl)ethyl)sulfamide]",0.1 to 1 µM
14,"Cn1cc(Br)c2ncnc(N3CCC(CCNS(N)(=O)=O)CC3)c21 [Example 138, N-(2-(1-(7-bromo-5-methyl-SH-pyrrolo[3,2-d]pyrimidin-4-yl)piperidin-4-yl)ethyl)sulfamide]",0.1 to 1 µM
15,"CCNS(=O)(=O)NCCC1CCN(c2ncnc3cc(OC)c(OC)cc23)CC1 [Example 139, 2-(1-(6,7-dimethoxyquinazolin-4-yl)piperidin-4-yl)ethan-1-amino(N-ethyl)sulfonamide]",> 1 µM
16,"COc1cc2ncnc(N3CCC(CCNS(=O)(=O)NC(C)C)CC3)c2cc1OC [Example 142, 2-(1-(6,7-dimethoxyquinazolin-4-yl)piperidin-4-yl)ethan-1-amino(N-prop-2-yl)sulfonamide]",> 1 µM
17,"COc1cc2ncnc(N3CCC(CCNS(=O)(=O)N(C)C)CC3)c2cc1OC [Example 143, 2-(1-(6,7-dimethoxyquinazolin-4-yl)piperidin-4-yl)ethan-1-amino(N,N-dimethyl)sulfonamide]",> 1 µM
18,"COc1cc2ncnc(N3CCC(CCNS(=O)(=O)C(F)(F)F)CC3)c2cc1OC [Example 146, N-(2-(1-(6,7-dimethoxyquinazolin-4-yl)piperidin-4-yl)ethyl)-1,1,1-trifluoromethanesulfonamide]",0.1 to 1 µM
19,"COc1cc2c(=O)ccn(Cc3ccc(NS(N)(=O)=O)cc3)c2cc1OC [Example 151, N-(4-((6,7-dimethoxy-4-oxoquinolin-1 (4H)-yl)methyl)phenyl) sulfamide]",< 0.1 µM
